# The source made the active and inactive calls. The rule behind the calls is not given here.
# Legend:
# Mus musculus [1] = assay: Protective effect in ovariectomy induced osteoporosis C57BL/6 mouse model assessed as inhibition of OVX-induced osteoblast activity by analysing osteoblast number in proximal femur at 3 mg/kg, ip and measured after 6 weeks by TRAP staining based microscopic analysis; format: functional, organism-based
# BMMC [2] = assay: Cytotoxicity against C57/BL6 mouse BMMC cells assessed as reduction in cell viability at 10 uM incubated for 24 hrs by CCK-8 assay; format: toxicity, cell-based
# BMMC [3] = assay: Anti-osteoclastogenic activity in C57/BL6 mouse BMMC cells assessed as inhibition of RANKL-induced osteoclast differentiation at 0.1 uM incubated for 5 to 7 days in presence of M-CSF by TRAP staining based microscopic analysis relative to control; format: functional; settings: time 5-7 day
# BMMC [4] = assay: Anti-osteoclastogenic activity in C57/BL6 mouse BMMC cells assessed as inhibition of RANKL-induced osteoclast differentiation at 0.01 uM incubated for 5 to 7 days in presence of M-CSF by TRAP staining based microscopic analysis relative to control; format: functional; settings: time 5-7 day
# BMMC [5] = assay: Anti-osteoclastogenic activity in C57/BL6 mouse BMMC cells assessed as inhibition of RANKL-induced osteoclast differentiation incubated for 5 to 7 days in presence of M-CSF by TRAP staining based microscopic analysis relative to control; format: functional, cell-based
# [6] = Microsomal stability in mouse liver microsomes assessed as half life at 1 uM and measured upto 60 mins by LC-MS/ MS analysis; format: ADME, Microsome
# [7] = Microsomal stability in mouse liver microsomes assessed as intrinsic clearance at 1 uM and measured upto 60 mins by LC-MS/ MS analysis; format: ADME, Microsome; settings: read-out: CLH
# [8] = Microsomal stability in mouse liver microsomes assessed as parent compound remaining at 1 uM and measured after 60 mins by LC-MS/ MS analysis; format: ADME, Microsome; settings: read-out: Stability
# [9] = Tmax in ICR mouse at 1 mg/kg, iv and measured upto 24 hrs by LC-MS/MS analysis; format: ADME, organism-based; settings: in vivo
# [10] = Cmax in ICR mouse at 1 mg/kg, iv and measured upto 24 hrs by LC-MS/MS analysis; format: ADME, organism-based; parameters: dose 1 mg/kg, time < 24 hrs, route iv; settings: in vivo
# [11] = AUCt in ICR mouse at 1 mg/kg, iv and measured upto 24 hrs by LC-MS/MS analysis; format: ADME, organism-based; parameters: dose 1 mg/kg, time < 24 hrs, route iv; settings: in vivo
# [12] = AUC (0 to infinity) in ICR mouse at 1 mg/kg, iv and measured upto 24 hrs by LC-MS/MS analysis; format: ADME, organism-based; parameters: dose 1 mg/kg, time < 24 hrs, route iv; settings: in vivo
# [13] = Clearance in ICR mouse at 1 mg/kg, iv and measured upto 24 hrs by LC-MS/MS analysis; format: ADME, organism-based; settings: in vivo
# [14] = Cmax in ICR mouse at 10 mg/kg, po and measured upto 24 hrs by LC-MS/MS analysis; format: ADME, organism-based; parameters: dose 10 mg/kg, time < 24 hrs, route po; settings: in vivo
# [15] = AUCt in ICR mouse at 10 mg/kg, po and measured upto 24 hrs by LC-MS/MS analysis; format: ADME, organism-based; parameters: dose 10 mg/kg, time < 24 hrs, route po; settings: in vivo
# [16] = Oral bioavailability in ICR mouse at 10 mg/kg and measured upto 24 hrs by LC-MS/MS analysis; format: ADME, organism-based; settings: in vivo
# BMMC [17] = assay: Anti-osteoclastogenic activity in C57/BL6 mouse BMMC cells assessed as inhibition of RANKL-induced osteoclast differentiation at 0.01 to 5 uM incubated for 5 to 7 days in presence of M-CSF by TRAP staining based microscopic analysis relative to control; format: functional, cell-based; settings: dose 0.01-5 µM, time 5-7 day
# BMMC [18] = assay: Anti-osteoclastogenic activity in C57/BL6 mouse BMMC cells assessed as reduction in RANKL-induced TRAP mRNA expression level at 0.1 uM incubated for 1 to 5 days in presence of M-CSF by qRT-PCR analysis; format: functional, cell-based; settings: time 1-5 day, TDE = time-dependent effect
# BMMC [19] = assay: Anti-osteoclastogenic activity in C57/BL6 mouse BMMC cells assessed as inhibition of RANKL-induced osteoclast differentiation by observing number of TRAP-positive multinucleated cells at 1 uM and compound added at different times and measured after 7 days in presence of M-CSF by TRAP staining based microscopic analysis relative to control; format: functional, cell-based; settings: time 7.0 day, TDE = time-dependent effect
# BMMC [20] = assay: Anti-osteoclastogenic activity in C57/BL6 mouse BMMC cells assessed as inhibition of RANKL-stimulated osteoclastogenesis at 1 uM and compound added at day 1 to 3 (early stage) and measured after 7 days in presence of M-CSF by TRAP staining based microscopic analysis relative to control; format: functional; settings: 168 h, time 7 day
# BMMC [21] = assay: Anti-osteoclastogenic activity in C57/BL6 mouse BMMC cells assessed as inhibition of RANKL-stimulated osteoclastogenesis at 1 uM and compound added at day 3 to 5 (mid stage) and measured after 5 days in presence of M-CSF by TRAP staining based microscopic analysis relative to control; format: functional; settings: 120 h, time 5 day
# BMMC [22] = assay: Anti-osteoclastogenic activity in C57/BL6 mouse BMMC cells assessed as inhibition of RANKL-stimulated osteoclastogenesis at 1 uM and compound added at day 5 to 7 (late stage) and measured after 3 days in presence of M-CSF by TRAP staining based microscopic analysis relative to control; format: functional; settings: 72 h, time 3 day
# BMMC [23] = assay: Anti-osteoclastogenic activity in C57/BL6 mouse BMMC cells assessed as reduction in RANKL-induced ATPase v0d2 mRNA expression level at 0.1 uM incubated for 1 to 5 days in presence of M-CSF by qRT-PCR analysis; format: functional, cell-based; settings: time 1-5 day, TDE = time-dependent effect
# BMMC [24] = assay: Anti-osteoclastogenic activity in C57/BL6 mouse BMMC cells assessed as reduction in RANKL-induced CTSK protein expression level at 0.1 uM incubated for 1 to 3 days in presence of M-CSF by Western blot anlaysis; format: functional, cell-based; settings: time 1-3 day
# BMMC [25] = assay: Anti-osteoclastogenic activity in C57/BL6 mouse BMMC cells assessed as reduction in RANKL-induced MMP-9 protein expression level at 0.1 uM incubated for 1 to 3 days in presence of M-CSF by Western blot anlaysis; format: functional, cell-based; settings: time 1-3 day
# MC3T3-E1 = assay: Induction of osteoblastogenesis in beta-glycerophosphate and vitamin C stimulated mouse MC3T3-E1 cells assessed as increase in ALP activity at 0.1 uM incubated for 7 days by ALP staining based microscopic analysis; format: functional, cell-based; settings: time 7.0 day
# Mus musculus [26] = assay: Protective effect in ovariectomy induced osteoporosis C57BL/6 mouse model assessed as increase in bone volume/tissue volume (BV/TV) in RIO of femur at 1 mg/kg, ip and measured after 6 weeks by micro-CT analysis; format: functional
# Mus musculus [27] = assay: Protective effect in ovariectomy induced osteoporosis C57BL/6 mouse model assessed as increase in bone volume/tissue volume (BV/TV) in RIO of femur at 3 mg/kg, ip and measured after 6 weeks by micro-CT analysis; format: functional
# Mus musculus [28] = assay: Protective effect in ovariectomy induced osteoporosis C57BL/6 mouse model assessed as increase in bone surface/tissue volume (BS/TV) in RIO of femur at 1 to 3 mg/kg, ip and measured after 6 weeks by micro-CT analysis; format: functional, organism-based; settings: dose 1-3 mg/kg
# Mus musculus [29] = assay: Protective effect in ovariectomy induced osteoporosis C57BL/6 mouse model assessed as increase in trabecular bone number (Tb.N) in RIO of femur at 1 to 3 mg/kg, ip and measured after 6 weeks by micro-CT analysis; format: functional, organism-based; settings: dose 1-3 mg/kg
# Mus musculus [30] = assay: Protective effect in ovariectomy induced osteoporosis C57BL/6 mouse model assessed as increase in trabecular separation (Tb.Sp) in RIO of femur at 1 to 3 mg/kg, ip and measured after 6 weeks by micro-CT analysis; format: functional, organism-based; settings: dose 1-3 mg/kg
compound,measurement,setting,value
C=C(CCC=C(C)C)[C@H]1CC[C@]2(C)[C@@H]1[C@H](O)C[C@@H]1[C@@]3(C)Cc4cnc(C)nc4C(C)(C)[C@@H]3CC[C@]12C,inhibition,Mus musculus [1],inactive
same,Activity,BMMC [2],>= 100%
same,inhibition at 0.1 µM,BMMC [3],100%
same,inhibition at 0.01 µM,BMMC [4],44.4%
same,IC50,BMMC [5],10.3 nM
same,half-life at 1 µM,[6],37.1 min
same,microsomal CLint at 1 µM,[7],37.4 µL/min/mg
same,"remaining at 1 h, 1 µM",[8],31%
same,Tmax,[9],4.8 min
same,Cmax,[10],4180 ng/mL
same,AUC(0-t) at 24 h,[11],1170 ng·h/mL
same,AUC(0-inf),[12],1170 ng·h/mL
same,clearance,[13],14.2 mL/min/kg
same,Cmax,[14],823 ng/mL
same,AUC(0-t) at 24 h,[15],1210 ng·h/mL
same,bioavailability,[16],10.5%
same,inhibition,BMMC [17],Dose-Dependent Effect
same,Activity,BMMC [18],Tde
same,inhibition,BMMC [19],Tde
same,inhibition at 1 µM,BMMC [20],98.8%
same,inhibition at 1 µM,BMMC [21],94.4%
same,inhibition at 1 µM,BMMC [22],62.3%
same,Activity,BMMC [23],Tde
same,Activity,BMMC [24],Active
same,Activity,BMMC [25],Active
same,Activity,MC3T3-E1,Active
same,Activity,Mus musculus [26],5.6%
same,Activity,Mus musculus [27],23.2%
same,Activity,Mus musculus [28],Active
same,Activity,Mus musculus [29],Active
same,Activity,Mus musculus [30],Active
